Literature values, collected in patent US20070072904A1, “PPAR active compounds” (priority 2005, published 2007).

What was measured:
PPARδ = target: T1, PPARδ (Homo sapiens, UniProt Q03181)
T1 sequence (Q03181 1-441): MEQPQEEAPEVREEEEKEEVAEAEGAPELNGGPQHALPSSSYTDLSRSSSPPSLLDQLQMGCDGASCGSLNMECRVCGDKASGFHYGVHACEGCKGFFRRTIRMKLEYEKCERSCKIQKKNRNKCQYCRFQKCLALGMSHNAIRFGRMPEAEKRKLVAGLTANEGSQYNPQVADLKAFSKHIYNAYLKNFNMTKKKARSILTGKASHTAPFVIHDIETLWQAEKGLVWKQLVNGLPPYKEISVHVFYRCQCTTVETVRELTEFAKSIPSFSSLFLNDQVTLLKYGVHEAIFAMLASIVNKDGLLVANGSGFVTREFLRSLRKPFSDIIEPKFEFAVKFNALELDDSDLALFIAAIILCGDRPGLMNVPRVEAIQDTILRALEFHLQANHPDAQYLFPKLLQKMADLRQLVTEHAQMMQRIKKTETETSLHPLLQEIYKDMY

murine PPARα = target: T2, murine PPARα (Mus musculus, UniProt P23204)
T2 sequence (P23204 1-468): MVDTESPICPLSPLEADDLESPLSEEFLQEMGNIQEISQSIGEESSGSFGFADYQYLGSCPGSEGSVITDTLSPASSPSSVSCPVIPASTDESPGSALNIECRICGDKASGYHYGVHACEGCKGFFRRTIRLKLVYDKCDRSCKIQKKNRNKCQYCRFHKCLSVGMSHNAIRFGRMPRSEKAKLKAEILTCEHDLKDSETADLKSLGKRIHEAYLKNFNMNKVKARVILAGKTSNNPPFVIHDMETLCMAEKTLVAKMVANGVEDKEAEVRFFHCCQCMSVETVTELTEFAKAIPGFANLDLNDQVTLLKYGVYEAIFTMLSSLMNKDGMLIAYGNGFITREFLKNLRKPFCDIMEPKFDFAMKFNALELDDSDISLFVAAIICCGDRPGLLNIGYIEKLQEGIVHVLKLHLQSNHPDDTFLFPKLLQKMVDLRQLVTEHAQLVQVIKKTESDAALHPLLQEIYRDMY

[1] = recent large prospective trial

Row | agonist selectivity for PPARδ over PPARγ (PPARδ) | activity on murine PPARα (murine PPARα) | SMILES | reduction in cardiovascular events or death [1] [%]
1 | approximately 30 fold | inactive | CCCc1c(OCCCOc2ccc(OCC(=O)O)cc2)ccc(C(C)=O)c1O [Compound L-165041] | 
2 |  |  | Cc1ccc(C)c(OCCCC(C)(C)C(=O)O)c1 [gemfibrozil] | 22
